Assay results reported in patent publication US10149644B2, “Curcumin derivatives for amyloid-β plaque imaging” (The General Hospital Corporation, priority 2008, dated 2018).
Entries after “also recorded” stand apart in the source; their conditions may differ. Where two headings read alike, the source gives them in different places.

Legend:
[1] = tested on: Aβ plaques; experiment: AD tissue staining of APP-PS1 brain sections; conditions: 25 micron sections, 12-month old APP-PS1 mice
Source text: The inventors conducted tissue staining with 25 micron brain sections from 12-month old APP-PS1 mice by all the compounds listed in FIG. 12.

[2] = tested on: Tg2576 mice; experiment: In vivo NIR imaging
Method: In vivo NIR imaging was performed using Kodak Imaging station 2000MM. For fluorescence excitation, three laser diodes at 660 nm with a total power of 10 mW/cm2 have been used yielding a uniform illumination of the whole animal. The fluorescent light emitted from the sample (mouse) was detected by a charge-coupled device (CCD) camera (Hamamatsu ORCA) equipped with a focusing lens system (macro lens 60 mm, 1:2.8, Nikon). The image matrix comprised of 532×256 pixels. A bandpass filter was used for the selection of the detection wavelength (700 nm). Integration time default was selected at 30 s. Images were acquired Kodak 1DTM 3.6.3 Network software and analysed using the Kodak™ 1D Analysis software.
Mice (n=3 for Tg2576 and n=3 for the littermates) were shaved before background imaging, and were i.v. injected CRANAD-2 (5.0 mg/kg) for each mouse. Fluorescence signals from the brain were recorded at pre-injection, and 10 min., 30 min., 60 min., 120 min., 240 min., and 480 min. after intravenous injection of the probe. To evaluate our imaging results, an ROI was drawn around the brain region, and the data were analyzed by the following modified equation (1) {24}, where Irel(t) is the relative fluorescence intensity at the certain time point, I(t) is the measured ROI value at this time point, I(pre) is the pre-injection background, and I(30) is the reading at 30 min. Since pre-injection background varied in different mice, this equation allowed us to correct for it. Fluorescence intensity decay curves were then generated based on this equation. Irel(t)=(I(t)−I(pre))/(I(30)−I(pre)) (1)
For in vivo specific binding (SP), the calculation was based on equation (2), where Irel(tg) is the relative fluorescence intensity of Tg2576, and Irel(contr) is the relative fluorescence intensity of the control littermates. P values were calculated by Student test. SP(t)={Irel(tg)−Irel(contr)}/Irel(tg) (2) Ex Vivo Histological Correlation.
Transgenic 11-month and 19-month old Tg2576 mice were used to validate the feasibility of CRANAD-2 as NIR imaging probe. Aged-matched wild type littermates served as controls. Images were recorded before and after i.v. injection of CRANAD-2 at 5.0 mg/Kg dosage. […] Furthermore, the signals from 19-month old Tg2576 (FIG. 11D) were remarkably brighter at all time points.
Semi-quantitative analysis of these images was conducted with selected region of interested (ROI), and two sets of data were generated. By normalizing the fluorescence intensity to that of 30 min. after the injection of the probe, we were able to create four well-fit decay curves with non-linear regression for two binding site model (Prism 3.0) for both 11- and 19-months old groups (R2=0.96, 0.97, 0.97, and 0.94 for 11-month control, tg2576, and 19-month control and tg2576 respectively) (FIG. 9A). By normalizing the signal to background fluorescence intensity (Fpre), and using the ratio between fluorescence intensity at time points studied ((F(t)) and Fpre) we could compare the signal change in Tg2576 group to that of the control group (FIGS. 9B,C)(e.g. F(t)/Fpre). Details of these methods are described in Materials and Methods contained herein.

[3] = Log P measurement (octanol/water); assay type: physicochemical
Method: Log p measurement was performed according to the reported procedure {35}. CRANAD-2 (0.125 mM) in Octanol 2.0 mL was subjected to partition with octanol-saturated water 2.0 mL. The resulting mixture was stirred vigorously for 5 min., and centrifuged at 2,000 rpm for 5 min. The octanol layer was separated from water layer, and its fluorescence spectrum was recorded (excited at 590 nm). The above water layer was partitioned with water-saturated octanol 2.0 mL, and the octanol layer was separated after 5 min. vigorous stirring and 5 min. centrifuge at 2,000 rpm, and its spectrum was recorded. The log P value was calculated by the fluorescence intensity ratio at 690 nm for the above two octanol extractions.
In order for the probe to cross blood brain barrier, its lipophilicity (log P) should be within 2-5 range.

[4] = target: T1, BSA (Bos taurus, UniProt P02769); experiment: BSA interaction; assay type: binding; conditions: BSA 20 μg/mL, probe 5 μM
T1 construct: purchased Sigma
Method: CRANAD-2 was added to a BSA (20 μg/mL) solution to make the final concentration of 5 μM. The fluorescence spectrum of the above mixture was recorded (excited at 590 nm). For comparisons, CRANAD-2 (5 μM) in PBS, PBS alone, and Aβ40 aggregates ([…]) and CRANAD-2 (5 μM) were prepared.
(§1) Since serum albumin is the most abundant plasma protein, it was important to test whether the probe had any affinity toward this protein. To test this the inventors incubated CRANAD-2 probe with BSA. For controls, the inventors used PBS buffer alone, the probe incubated in PBS alone, and with Aβ40 aggregates. […] In addition, the inventors tested CRANAD-2 stability by incubating the probe (4×10^−6M) with human serum for 2 hours at 37° C.

[5] = target: T2, Aβ40 aggregates (Homo sapiens, UniProt P05067); experiment: Fluorescence response of probe to Aβ40 aggregates, Aβ40 monomer and PBS; assay type: binding
T2 construct: Synthetic amyloid-b protein (1-40) was purchased from rPeptide; purchased rPeptide (Bogart, Ga.)
Source text: We compared the fluorescence intensity of CRANAD-2 with PBS (pH 7.4), Aβ40 peptide, and Aβ40 aggregates generated from Cu^2+ induced aggregation.

[6] = Serum stability test; assay type: in vitro ADME, human; conditions: for recovery at 2 h, 4 μM: human, human serum, 37° C., ethyl acetate extraction
Method: CRANAD-2 (4.0 μM) was incubated at 37° C. for 2 h with 1.0 mL human serum, then ethyl acetate (4×5.0 mL) was added, stirred at room temperature for 10 min., and centrifuged to give clear organic supernatant. The ethyl acetate solution was subjected to fluorescence intensity measurement (F.I.(660 nm)=8713), and the concentration of CRANAD-2 was calculated (0.14 μM) using the equation (Y=474+61.7 X, where Y is F.I., and X is the concentration) generated from standard curve of CRANAD-2 in ethyl acetate. The recovery of CRANAD-2 was about 70%. After the fluorescence measurement, the ethyl acetate solution was concentrated to 40 μL, and 10 μL was injected for HPLC analysis. By HPLC, the recovery of CRANAD-2 was about 75%, which was close to the result from fluorescence measurement.
as §1

T1 sequence (P02769 25-607): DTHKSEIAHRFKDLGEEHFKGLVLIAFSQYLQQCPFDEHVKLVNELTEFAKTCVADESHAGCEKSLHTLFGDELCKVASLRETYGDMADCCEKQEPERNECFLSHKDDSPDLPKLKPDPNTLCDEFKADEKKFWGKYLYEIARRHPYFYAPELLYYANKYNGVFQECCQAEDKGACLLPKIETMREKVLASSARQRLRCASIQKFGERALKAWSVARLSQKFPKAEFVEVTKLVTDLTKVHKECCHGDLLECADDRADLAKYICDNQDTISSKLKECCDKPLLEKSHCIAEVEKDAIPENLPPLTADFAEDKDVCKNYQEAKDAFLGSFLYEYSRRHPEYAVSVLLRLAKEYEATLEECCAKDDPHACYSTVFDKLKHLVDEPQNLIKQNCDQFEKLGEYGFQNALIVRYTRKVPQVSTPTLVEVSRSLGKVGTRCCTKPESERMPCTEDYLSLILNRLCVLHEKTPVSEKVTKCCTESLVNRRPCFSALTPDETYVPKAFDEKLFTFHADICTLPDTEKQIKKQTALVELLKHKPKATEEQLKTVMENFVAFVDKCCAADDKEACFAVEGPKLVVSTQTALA
T2 sequence (P05067 672-711 limits assumed): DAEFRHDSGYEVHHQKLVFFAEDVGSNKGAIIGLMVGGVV

CN(C)c1ccc(/C=C/C2=CC(/C=C/c3ccc(N(C)C)cc3)=[O+][B-](F)(F)O2)cc1 [CRANAD-2]
Staining of plaques in brain sections [1]: good staining
Staining of plaques in brain sections ([1]; listed as CRANAD2): stained the plaques brightly
Declining of brain fluorescence signals, Tg2576 vs control ([2]; 5.0 mg/kg i.v., 11- and 19-month old): considerably slower
Difference in F(t)/Fpre, Tg2576 vs control ([2]; 11-month old, 120 min): 0.52
Difference in relative fluorescence decay Irel(t), Tg2576 vs control ([2]; 11-month old, 120 min, 5.0 mg/kg i.v.): 23%
Difference in F(t)/Fpre, Tg2576 vs control ([2]; 11-month old, 240 min): 0.45
Difference in relative fluorescence decay Irel(t), Tg2576 vs control ([2]; 11-month old, 240 min, 5.0 mg/kg i.v.): 16%
Difference in F(t)/Fpre, Tg2576 vs control ([2]; 19-month old, 120 min): 0.43
Difference in relative fluorescence decay Irel(t), Tg2576 vs control ([2]; 19-month old, 120 min, 5.0 mg/kg i.v.): 20%
Difference in F(t)/Fpre, Tg2576 vs control ([2]; 19-month old, 240 min): 0.65
Difference in relative fluorescence decay Irel(t), Tg2576 vs control ([2]; 19-month old, 240 min, 5.0 mg/kg i.v.): 30%
Fluorescence intensity, transgenic vs control groups ([2]; 30, 60, 120 and 240 min after injection): higher than that of the control groups
Slower decay rate, 19-month vs 11-month old Tg2576 ([2]; 120 min): 11%
"Smart" amplification factor in vivo (ratio>1.0 = smart) ([2]; 120 min and 240 min, 11- and 19-month groups): “smart” probe in vivo
Slower decay rate, 19-month vs 11-month old Tg2576 ([2]; 240 min): 13%
logP [3]: 3
Binding to BSA / fluorescence change with BSA [4]: did not observe any significant change in fluorescence; also recorded: did not show any significant binding; also recorded: does not show any significant binding
Fluorescence intensity with Aβ40 peptide monomer vs PBS ([5]; Aβ40 monomer): did not observe any significant difference
Quantum yield in PBS buffer ([5]; PBS buffer): 0.6%
Quantum yield in PBS ([5]; PBS, given as fraction): 0.006
Quantum yield after binding to Aβ40 aggregates ([5]; bound to Aβ40 aggregates, given as fraction): 0.40
Quantum yield upon binding to aggregates ([5]; bound to aggregates): 40%
Fluorescence intensity increase in the presence of Aβ40 aggregates ([5]; vs PBS): 70 fold
Stability in serum in vitro [6]: considerable stability in serum
recovery at 2 h, 4 μM ([6]; read-out: Recovery after serum incubation, by HPLC): ~75%
recovery at 2 h, 4 μM ([6]; read-out: Recovery after serum incubation, by fluorescence): ~70%
